Test results as given in patent publication US8410168B2, “Methods and compositions for treating ophthalmic conditions with retinyl derivatives” (Acucela, Inc., priority 2004, dated 2013).

What was measured:
mice = experiment: Retinoid composition, chromophore regeneration and electrophysiology in HPR-treated mice; assay type: in vivo; settings: 10 mg/kg daily for 28 days
Source text: Panels D-F of FIG. 17 are electrophysiological measurements of rod function (panel D), rod and cone function (panel E) and recovery from photobleaching (panel F).

apo-CRALBP = molecular target: T1, apo-CRALBP (Homo sapiens, UniProt P12271); experiment: Ni+ affinity column and spectroscopic analysis of binding to CRALBP; settings: 10 μM apo-CRALBP, 20 μM ligand
T1 construct: made in house
Protocol: In order to confirm data obtained during fluorescence analysis of HPR binding to CRALBP, a second analysis was performed using affinity chromatography and spectroscopic analysis. The recombinant apo-CRALBP was constructed with a histidine tag which is utilized to purify the protein on a Ni+ affinity column following expression cloning. Here, we utilized this feature of apo-CRALBP to specifically “trap” the protein and any protein-ligand species for spectroscopic analysis. Two binding mixtures were prepared containing apo-CRALBP (10 μM) and either 11cRAL (20 μM) or HPR (20 μM). In control experiments for the analysis of non-specific ligand binding onto the affinity matrix, we prepared two additional mixtures containing only 11cRAL (20 μM) or HPR (20 μM) in binding buffer. The binding mixtures were passed through separate Ni+ affinity columns and the columns were washed extensively to elute unbound protein and ligand. Following the addition of elution buffer, the eluted fractions were analyzed by spectroscopy. […] Instead, two absorption maxima are seen: one at 280 nm and a second at 360 nm, which is attributable to the absorption of HPR (see FIG. 14).

T1 sequence (P12271 whole entry, species assumed): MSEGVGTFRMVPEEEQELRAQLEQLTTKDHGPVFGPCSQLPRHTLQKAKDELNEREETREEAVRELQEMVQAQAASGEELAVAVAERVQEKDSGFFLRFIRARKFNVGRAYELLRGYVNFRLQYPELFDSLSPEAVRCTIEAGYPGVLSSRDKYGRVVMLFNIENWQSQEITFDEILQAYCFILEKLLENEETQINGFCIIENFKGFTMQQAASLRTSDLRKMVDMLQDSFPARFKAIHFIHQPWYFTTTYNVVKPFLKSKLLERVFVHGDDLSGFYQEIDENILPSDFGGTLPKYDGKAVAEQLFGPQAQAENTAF

## CC1=C(/C=C/C(C)=C/C=C/C(C)=C/C(=O)Nc2ccc(O)cc2)C(C)(C)CCC1 [HPR, N-(4-hydroxyphenyl)retinamide]
mice
  regeneration of visual chromophore: does not affect
apo-CRALBP
  binding to apo-CRALBP by absorption spectra of eluted fraction: binds apo-CRALBP
